Test system: L-687,414-induced hyperlocomotion
Experiment: L-687,414-induced hyperlocomotion (Digiscan locomotor activity)
Format: in vivo, mouse
Settings: mice; for Inhibition, ip: dose ip 30, at the same time as s.c. 50 mg/kg L-687,414, % inhibition of horizontal activity; for ID50 po: p.o. 15 min before s.c. 50 mg/kg L-687,414, dose producing 50% inhibition of hyperlocomotion
Procedure: The authors described that hyperlocomotion induced by L-687,414 was inhibited by a series of known antipsychotic drugs. […] These findings predict antipsychotic activity for the present compounds, making them useful for the treatment of schizophrenia and other disorders as described above.
The described compounds of formula I and I-1 reduce L-687,414-induced hyperlocomotion. This was assessed by using a computerized Digiscan 16 Animal Activity Monitoring System (Omnitech Electronics, Columbus, Ohio) to quantify locomotor activity. Animals were kept under a 12 h light/dark cycle and experiments were performed during the light period. Each activity monitoring chamber consisted of a Plexiglas box (41×41×28 cm; W×L×H) with sawdust bedding on the floor surrounded by invisible horizontal and vertical infrared sensor beams. The test boxes were divided by a Plexiglas cross providing each mouse with 20×20 cm of moving space. Cages were connected to a Digiscan Analyzer linked to a computer that constantly collected the beam status information. Records of photocell beam interruptions for individual animals were taken every 5 min over the duration of the experimental session and the sum of the first 6 periods was used as the final parameter. Compounds were administered either p.o. 15 min before a s.c. injection of 50 mg/kg of L-687,414, or i.p. at the same time as a s.c. injection of 50 mg/kg of L-687,414. Mice were then transferred from their home cage to the recording chambers for a 15-min habituation phase allowing free exploration of the new environment. Horizontal activity was then recorded for a 30-min time period. The % inhibition of L-687,414-induced hyperlocomotion was calculated according to the equation: ((Veh+L-687,414 horizontal activity−drug+L-687,414 horizontal activity)/Veh+L-687,414 horizontal activity)×100
ID50 values, defined as doses of each compound producing 50% inhibition of L-687,414-induced hyperlocomotion, were calculated by linear regression analysis of a dose-response data using an Excel-based computer-fitting program.
As data was not presupposed to be normally distributed, groups treated with test compounds were statistically compared with the control (vehicle-treated) group using one-tailed Mann Whitney U tests. In statistics, the Mann-Whitney U test (also called the Mann-Whitney-Wilcoxon (MWW) or Wilcoxon rank-sum test) is a non-parametric statistical hypothesis test for assessing whether one of two samples of independent observations tends to have larger values than the other. It is one of the most well-known non-parametric significance tests. […] P values given in table 1 are one-tailed since only decreases in locomotion were expected and tested for (Mann, H. B., Whitney, D. R. (1947), “On a Test of Whether one of Two Random Variables is Stochastically Larger than the Other”, Annals of Mathematical Statistics, 18 (1), 50-60).

SMILES | Inhibition, ip [%] | ID50 po [mg/kg]
CC1(C)C(=O)N(CCCOC2CC2)c2cc(NC(=O)c3ccncc3F)ccc21 [Example 65, N-(1-(3-Cyclopropoxypropyl)-3,3-dimethyl-2-oxoindolin-6-yl)-3-fluoroisonicotinamide] | 91.1 | –
Cc1cc(C(=O)Nc2cc3c(cc2F)C(C)(C)C(=O)N3C2CC2)ccn1 [Example 46, N-(1-Cyclopropyl-5-fluoro-3,3-dimethyl-2-oxoindolin-6-yl)-2-methylisonicotinamide] | 72.7 | –
CC1(C)C(=O)N(C2CC2)c2cc(NC(=O)c3ccncc3F)ccc21 [Example 31, N-(1-Cyclopropyl-3,3-dimethyl-2-oxoindolin-6-yl)-3-fluoroisonicotinamide] | – | 1
CN1C(=O)C(C)(C)c2ccc(NC(=O)c3ccc(F)cc3)cc21 [Example 43, 4-Fluoro-N-(1,3,3-trimethyl-2-oxoindolin-6-yl)benzamide] | 88.0 | –
COc1ccc(C(=O)Nc2ccc3c(c2)N(C)C(=O)C3(C)C)cn1 [Example 10, 6-Methoxy-N-(1,3,3-trimethyl-2-oxoindolin-6-yl)nicotinamide] | 62.2 | –
CC1(C)C(=O)N(C2CC2)c2cc(NC(=O)c3ccno3)ncc21 [Example 85, N-(1-Cyclopropyl-3,3-dimethyl-2-oxo-2,3-dihydro-1H-pyrrolo[3,2-c]pyridin-6-yl)isoxazole-5-carboxamide] | 74.9 | –
CC1(C)C(=O)N(C2CC2)c2cc(NC(=O)c3ccnc(Cl)c3)ncc21 [Example 83, 2-Chloro-N-(1-cyclopropyl-3,3-dimethyl-2-oxo-2,3-dihydro-1H-pyrrolo[3,2-c]pyridin-6-yl)isonicotinamide] | 79.6 | –
CN1C(=O)C(C)(C)c2ccc(NC(=O)c3ccncc3)cc21 [Example 2, N-(1,3,3-Trimethyl-2-oxo-2,3-dihydro-1H-indol-6-yl)-isonicotinamide] | – | 2.06
CC1(C)C(=O)N(CC2CC2)c2cc(NC(=O)c3ccncc3F)ccc21 [Example 53, N-(1-(Cyclopropylmethyl)-3,3-dimethyl-2-oxoindolin-6-yl)-3-fluoroisonicotinamide] | 89.9 | –
CN1C(=O)C(C)(C)c2cc(F)c(NC(=O)c3ccncc3Cl)cc21 [Example 51, 3-Chloro-N-(5-fluoro-1,3,3-trimethyl-2-oxoindolin-6-yl)isonicotinamide] | 80.1 | –
CC1(C)C(=O)N(CC2CC2)c2cc(NC(=O)c3ccncc3)ccc21 [Example 52, N-(1-(Cyclopropylmethyl)-3,3-dimethyl-2-oxoindolin-6-yl)isonicotinamide] | 78.8 | –
CC1(C)C(=O)N(C2COC2)c2cc(NC(=O)c3cccnc3)ccc21 [Example 64, N-(3,3-Dimethyl-1-(oxetan-3-yl)-2-oxoindolin-6-yl)nicotinamide] | 65.9 | –
COc1ncc(C(=O)Nc2cc3c(cn2)C(C)(C)C(=O)N3C2CC2)cn1 [Example 88, N-(1-Cyclopropyl-3,3-dimethyl-2-oxo-2,3-dihydro-1H-pyrrolo[3,2-c]pyridin-6-yl)-2-methoxypyrimidine-5-carboxamide] | – | 6.11
CN1C(=O)C(C)(C)c2cc(F)c(NC(=O)c3ccncc3)cc21 [Example 20, N-(5-Fluoro-1,3,3-trimethyl-2-oxoindolin-6-yl)isonicotinamide] | 87.3 | –
CCN1C(=O)C(C)(C)c2ccc(NC(=O)c3ccnc(C)c3)cc21 [Example 39, N-(1-Ethyl-3,3-dimethyl-2-oxoindolin-6-yl)-2-methylisonicotinamide] | 58.6 | –
COc1cnccc1C(=O)Nc1ccc2c(c1)N(C)C(=O)C2(C)C [Example 15, 3-Methoxy-N-(1,3,3-trimethyl-2-oxoindolin-6-yl)isonicotinamide] | 56.3 | –
Cn1nccc1C(=O)Nc1cc2c(cn1)C(C)(C)C(=O)N2C1CC1 [Example 86, N-(1-Cyclopropyl-3,3-dimethyl-2-oxo-2,3-dihydro-1H-pyrrolo[3,2-c]pyridin-6-yl)-1-methyl-1H-pyrazole-5-carboxamide] | 69 | –

SMILES | Inhibition, ip [%] | ID50 po [mg/kg]
CC1(C)C(=O)N(C2CC2)c2cc(NC(=O)c3cccnc3)c(F)cc21 [Example 38, N-(1-Cyclopropyl-5-fluoro-3,3-dimethyl-2-oxoindolin-6-yl)nicotinamide] | 60.8 | –
CC1(C)C(=O)N(C2COC2)c2cc(NC(=O)c3ccncc3F)ccc21 [Example 59] | 88.6 | –
O=C(Nc1ccc2c(c1)N(C1CC1)C(=O)C21CC1)c1ccncc1F [Example 57, N-(1′-Cyclopropyl-2′-oxospiro[cyclopropane-1,3′-indoline]-6′-yl)-3-fluoroisonicotinamide] | 60.5 | –
Cc1cc(C(=O)Nc2ccc3c(c2)N(C2CC2)C(=O)C3(C)C)ccn1 [Example 17, N-(1-Cyclopropyl-3,3-dimethyl-2-oxoindolin-6-yl)-2-methylisonicotinamide] | 79.3 | –
O=C(Nc1ccc2c(c1)N(C1CC1)C(=O)C21CC1)c1ccncc1 [Example 55, N-(1′-Cyclopropyl-2′-oxospiro[cyclopropane-1,3′-indoline]-6′-yl)isonicotinamide] | 61.7 | –
Cc1cc(C(=O)Nc2ccc3c(c2F)N(C)C(=O)C3(C)C)ccn1 [Example 28, N-(7-fluoro-1,3,3-trimethyl-2-oxoindolin-6-yl)-2-methylisonicotinamide] | 74.7 | –
Cc1cc(C(=O)Nc2ccc3c(c2)N(C)C(=O)C3(C)C)c(F)cn1 [Example 33, 5-Fluoro-2-methyl-N-(1,3,3-trimethyl-2-oxoindolin-6-yl)isonicotinamide] | 78.6 | –
CC1(C)C(=O)N(CCCO)c2cc(NC(=O)c3ccncc3Cl)ccc21 [Example 73, 3-Chloro-N-(1-(3-hydroxypropyl)-3,3-dimethyl-2-oxoindolin-6-yl)isonicotinamide] | 51.2 | –
CN1C(=O)C2(CCCC2)c2ccc(NC(=O)c3ccncc3)cc21 [Example 3, N-(1′-Methyl-2′-oxospiro[cyclopentane-1,3′-indoline]-6′-yl)isonicotinamide] | 83.3 | –
CN1C(=O)C(C)(C)c2ccc(NC(=O)c3cccnc3)cc21 [Example 4, N-(1,3,3-Trimethyl-2-oxoindolin-6-yl)nicotinamide] | – | 1.84
CC1(C)C(=O)N(C2CC2)c2cc(NC(=O)c3ccncc3)ccc21 [Example 14, N-(1-Cyclopropyl-3,3-dimethyl-2-oxoindolin-6-yl)isonicotinamide] | 66.5 | –
Cc1ncc(C(=O)Nc2ccc3c(c2)N(C)C(=O)C3(C)C)c(C)n1 [Example 12, 2,4-Dimethyl-N-(1,3,3-trimethyl-2-oxoindolin-6-yl)pyrimidine-5-carboxamide] | 69.2 | –
Cc1cc(C(=O)Nc2ccc3c(c2)N(C)C(=O)C3(C)C)nc(C)n1 [Example 8, 2,6-Dimethyl-N-(1,3,3-trimethyl-2-oxoindolin-6-yl)pyrimidine-4-carboxamide] | 70.7 | –
CC1(C)C(=O)N(C2CC2)c2cc(NC(=O)c3cccnc3)ccc21 [Example 18, N-(1-Cyclopropyl-3,3-dimethyl-2-oxoindolin-6-yl)nicotinamide] | 68.8 | –
Cc1cc(C(=O)Nc2ccc3c(c2)N(C2CC2)C(=O)C32CC2)ccn1 [Example 60, N-(1′-Cyclopropyl-2′-oxospiro[cyclopropane-1,3′-indoline]-6′-yl)-2-methylisonicotinamide] | 63.2 | –
CC1(C)C(=O)N(CC(F)(F)F)c2cc(NC(=O)c3ccncc3F)ccc21 [Example 74, N-(3,3-Dimethyl-2-oxo-1-(2,2,2-trifluoroethyl)indolin-6-yl)-3-fluoroisonicotinamide] | 76.6 | –
CC1(C)C(=O)N(C2CC2)c2cc(NC(=O)c3ccncc3)ncc21 [Example 79, N-(1-Cyclopropyl-3,3-dimethyl-2-oxo-2,3-dihydro-1H-pyrrolo[3,2-c]pyridin-6-yl)isonicotinamide] | – | 0.94

Source: patent US9221816B2, “2-oxo-2,3-dihydro-indoles for the treatment of CNS disorders” (Hoffmann-La Roche Inc., priority 2012, dated 2015)
